Residues, ends and D or L forms follow the SMILES beside them.

Results on 4 molecules are retold here after patent publication US20170049845A1, “METHODS OF TREATING ALZHEIMER'S DISEASE, HUNTINGTON'S DISEASE, AUTISM, OR OTHER DISORDERS” (Northwestern University, priority 2011, published 2017).

The subject of one data set is autistic individuals. The settings on record: cited from earlier work.
Data set [1] relates to Schaffer collateral-CA1 synapses. Put plainly: hAβ-induced impairment of LTP at Schaffer collateral-CA1 synapses in acute hippocampal slices. The class given is cell-based, rat. The following applies: high-frequency Schaffer collateral stimulation 30 min later. From the text:
FIG. 5 depicts rescue of Aβ impairment of long-term potentiation (LTP) of synaptic transmission at Schaffer collateral-CA1 synapses in hippocampal slices in presence of GLYX-13. A: Time course of the effect of pressure ejection of Aβ(1-42) into stratum radiatum of field CA1 (Aβ injections; 12 psi/100 ms; filled circles; n=10) on basal synaptic transmission and LTP induced by high-frequency stimulus trains (3×100 Hz/500 ms), compared to vehicle (TFE) injection (open circles; n=8). B: Time course of the effect of pressure ejection of Aβ(1-42) into stratum radiatum of field CA1 in the presence of 1 μM Glyx-13 (Aβ injections; 12 psi/100 ms; filled circles; n=8) on basal synaptic transmission and LTP induced by high-frequency stimulus trains (3×100 Hz/500 ms), compared to vehicle (TFE) injection (open circles; n=8). C: Time course of the effect of pressure ejection of Aβ(1-42) into stratum radiatum of field CA1 in the presence of 1 μM D-cycloserine (Aβ injections; 12 psi/100 ms; filled circles; n=7) on basal synaptic transmission and LTP induced by high-frequency stimulus trains (3×100 Hz/500 ms), compared to vehicle (TFE) injection (open circles; n=8). D: Time course of the effect of pressure ejection of Aβ(1-42) into stratum radiatum of field CA1 in the presence of 100 μM D-Serine (Aβ injections; 12 psi/100 ms; filled circles; n=8) on basal synaptic transmission and LTP induced by high-frequency stimulus trains (3×100 Hz/500 ms), compared to vehicle (TFE) injection (open circles; n=8). Each point in A, B and C is mean±SEM normalized fEPSP slope.
We pressure ejected hAβ in the absence or presence of Glyx-13, D-cycloserine or the full agonist D-serine, into the Schaffer collateral synaptic field in CA1 stratum radiatum of acute in vitro rat hippocampal slices and attempted to evoke LTP 30 min later. FIG. 5A illustrates that hAβ alone caused a significant reduction (˜20%) in the magnitude of LTP elicited by high-frequency Schaffer collateral stimulation.

The test system of another data set is low-line rats. Put plainly: Conspecific play induced pro-social USVs in low-line rats (autism model). The class given is in vivo, rat. The settings on record: adolescent male low-line rats, 50 mg/kg s.c. 15 min before testing, vs vehicle, P<0.05. Here is the method:
FIG. 2 depicts Mean±SEM (A) rates of conspecific play induced pro-social USVs (frequency-modulated 50 kHz calls) in adolescent male low-line rats pretreated with vehicle (1 mg/ml sterile saline s.c.) or (B) GLYX-13 (50 mg/kg s.c.) […] before the start of testing using a within-subjects design. (C) Proportion of total conspecific play induced USVs that were monotonous (i.e., bandwidth less than 7 kHz; n=9 per group. *P<0.05 Fisher PLSD post hoc test, 2 tailed.
Core symptoms of autism (1) deficits in social emotions and motivations, 2) communication problems, and 3) a high incidence of motor abnormalities, especially repetitive behaviors) can be modeled in part in animals using the following behavioral measures, respectively: (1) reduced time spent in social contact; (2) reduced rates of pro-social vocalizations, and (3) disrupted ultrasonic vocalization patterns.
The proportion of total conspecific play induced USVs that were monotonous (i.e., bandwidth less than 7 kHz) is shown in FIG. 2C. n=9 per group. *P<0.05 Fisher PLSD post hoc test, 2 tailed.

The next data set relates to CA1 pyramidal neurons. As to the kind of experiment: Protection against human b-amyloid (1-42) toxicity in organotypic hippocampal slice cultures (propidium fluorescence). The class given is cell-based. The settings on record: 5 μg/ml hAβ, 24 hr after application. From the text: FIG. 4 depicts delayed neuronal death produced by Aβ(1-42) in organotypic hippocampal slice cultures upon application of GLYX-13; Mean±SEM propidium fluorescence 24 hr after bath application of Aβ(1-42) alone, versus Aβ(1-42) in the presence of indicated concentrations (μg/ml) of Glyx-13 (*, […], Student's t-test compared to Aβ alone).
To determine whether Glyx-13, by renormalizing activation of NMDA receptors, might protect against the toxicity of hAβ to susceptible neurons in a physiological network milieu, we compared the long-term effects of hAβ in the absence and presence of different concentrations of Glyx-13.

The next data set relates to HD 51 CAG and WT rats. As to the kind of experiment: Huntington's disease model, serial operant reversal task, phase 3 pseudo-random testing. The class given is in vivo, rat. The settings on record: subcutaneously 20 minutes prior to task. Here is the method: HD 51 CAG and WT (wild type) rats are used in a Huntington's disease model study, testing cognition with serial operant reversal tasks. Rats are dosed according to the following schedule:
The animals are first placed in an acquisition trial. The acquisition trial is an 8-hour testing period where the animal is reinforced with a sucrose food pellet for a “correct” lever press after a variable interval time of 30 seconds. This task requires the animals to learn which lever needs to be activated to gain reinforcement. The time taken to identify the “correct” lever is measured, as well as the number of reinforcers earned, percentage of “correct” lever presses, and errors made (incorrect lever presses). The acquisition trial is performed with access to water ad libidum. […]
The testing session is conducted using a progressive FR schedule for 25 or 30 days. […] The response rate for the left and right lever is recorded, as well as the total number of lever presses for each side, the total number of lever presses combined for each side in a session, the percentage of “correct” lever presses (“correct” lever presses/left lever presses+right lever presses then multiplied by 100 to obtain a percentage), the total reinforcers earned, and the time to complete each session. The rats are given one day off before the second phase of testing begins, with only the weight of the rats being recorded. […]

Turning to `N[C@@H]1CONC1=O` [D-cycloserine], in the data set on autistic individuals (autistic individuals (Posey et al., 2004)), the social withdrawal result is reported as “significantly improved”. In addition, the “rescue of LTP after hAβ pressure ejection” value (“rescue of LTP” for short) in data set [1] (1 μM bath-applied) is recorded as “neither the glycine site partial agonist D-cycloserine (1 μM, FIG. 5C, open circles) nor the full agonist D-serine (100M, FIG. 5D, open circles) was able to rescue LTP”.

Regarding `N[C@H](CO)C(=O)O` [D-serine], in data set [1], the “rescue of LTP” value was “nor the full agonist D-serine (100M, FIG. 5D, open circles) was able to rescue LTP”.

On to `C[C@@H](O)[C@H](N)C(=O)N1CCC[C@H]1C(=O)N1CCC[C@H]1C(=O)N[C@H](C(N)=O)[C@@H](C)O` [GLYX-13, L-threonyl-L-prolyl-L-prolyl-L-threonine amide] (H-TPPT-NH2), for which, in data set [1] (1 μM bath-applied), the “rescue of LTP” value was “LTP was restored to normal control levels”. In the data set on low-line rats, the “proportion of total USVs that are monotonous (bandwidth less than 7 kHz)” value is reported as “significantly decreased” and the “rates of play inducing pro-social USVs (frequency-modulated 50 kHz calls)” value was “significantly increased”. Also, the “dose-response relation of neuroprotective potency” value in the data set on CA1 pyramidal neurons is reported as “U-shaped dose-response relation”. The “percentage of correct lever presses vs saline injections” value in the data set on HD 51 CAG and WT rats (HD animals) is “higher percentage trends of correct lever presses”. The “percentage of correct lever presses vs saline injections” value with HD 51 CAG and WT rats (WT animals) was “higher percentage trends of correct lever presses”.

Regarding `Cc1nc2n(c(=O)c1CCN1CCC(c3noc4cc(F)ccc34)CC1)CCCC2` [risperidone], in the data set with autistic individuals (autism), the “hyperactivity and irritability symptoms” value is on record as “significantly decrease”; the “inappropriate speech or social withdrawal” value is reported as “little to no effect”; the side effects result was “significant weight gain and sedative side effects”.
